Assay results published in patent publication US12727608B2, “Stable liquid animal feed ingredient” (PURAC BIOCHEM B.V., priority 2020, dated 2026).

What was measured:
Format in all cases: cell-based
Settings in all cases: Experiment 2; 72 hours at 30° C.
[1] = test system: Streptococcus suis DSM 9682; assay: MIC determination (Bioscreen growth)
[2] = test system: Streptococcus suis DSM 28762; assay: MIC determination (Bioscreen growth)
[3] = test system: Clostridium perfringens ATCC 13124

Measured: MIC value

CC(O)CO (stereo not drawn) [MPG, 1,2-propanediol]
>405 ppm: all assays above
